# According to patent US7678787B2, “Pyrrolobenzodiazepine pyridine carboxamides and derivatives as follicle-stimulating hormone receptor antagonists” (Wyeth, priority 2005, dated 2010):
# Structures can show the parent of a compound that is named as a salt.
# Target: T1, human FSH receptor (Homo sapiens, UniProt P23945)
# T1 construct: host or cells: CHO-K1 (CHO FSH-R 6CRE-Luc, 1D7 cells)
# T1 sequence (P23945 18-695): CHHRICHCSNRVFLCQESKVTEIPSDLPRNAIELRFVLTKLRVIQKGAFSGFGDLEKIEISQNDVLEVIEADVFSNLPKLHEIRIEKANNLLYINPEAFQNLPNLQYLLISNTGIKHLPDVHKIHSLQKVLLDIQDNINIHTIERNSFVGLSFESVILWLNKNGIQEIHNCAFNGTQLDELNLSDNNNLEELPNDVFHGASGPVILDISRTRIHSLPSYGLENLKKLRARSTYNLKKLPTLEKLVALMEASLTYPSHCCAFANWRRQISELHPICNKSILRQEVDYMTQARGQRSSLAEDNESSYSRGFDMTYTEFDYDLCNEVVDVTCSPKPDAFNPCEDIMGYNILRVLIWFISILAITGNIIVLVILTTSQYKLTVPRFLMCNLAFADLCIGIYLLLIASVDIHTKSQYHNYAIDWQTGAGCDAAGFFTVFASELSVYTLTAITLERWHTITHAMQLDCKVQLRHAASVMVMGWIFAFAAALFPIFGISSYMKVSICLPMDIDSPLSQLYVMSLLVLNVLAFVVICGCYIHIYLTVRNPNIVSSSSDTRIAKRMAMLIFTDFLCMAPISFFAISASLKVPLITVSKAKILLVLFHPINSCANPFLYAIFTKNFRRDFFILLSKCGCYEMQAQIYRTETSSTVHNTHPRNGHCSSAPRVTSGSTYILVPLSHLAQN
# Assay: FSH receptor-dependent CRE-luciferase reporter gene assay (CHO FSH-R 6CRE-Luc cells)
# Format: cell-based
# Settings: dose-response format in presence of EC50 of purified human FSH; * n=3, ** n=2 averages
# From the text: FOLLICLE-STIMULATING HORMONE RECEPTOR-DEPENDENT CRE-LUCIFERASE REPORTER GENE ASSAY FOR THE IDENTIFICATION OF FOLLICLE-STIMULATING HORMONE (FSH) ANTAGONISTS
# A Chinese hamster ovarian cell line that stably produces the human FSH receptor and a luciferase reporter gene regulated by cAMP response elements was used to identify and determine the relative potencies of human FSH receptor antagonists. See for example, Kelton, C. A., et al. Mol. Cell. Endocrinol. 89:141-151 (1992), Tilly, J. L., et al. Endocrinology 131:799-806(1992), and George, S. E., et al. J. Biomol. Screening 2:235-240 (1997).
# Compound Vehicle: Stock compounds were solubilized in an appropriate vehicle, e.g., phosphate buffered saline (PBS) or dimethyl sulfoxide (DMSO), at 30 mM. The compounds subsequently were diluted in DMSO to working dilutions of 1 and 20 or 30 mM for 2-dose testing format and 1 μM-10 mM for dose-response format. The DMSO dilutions were diluted 500-fold in sterile growth medium [D-MEM/F-12 (GIBCO/BRL; Grand Island, N.Y.) containing 15 mM HEPES, 2 mM l-glutamine, pyridoxine hydrochloride, phenol red and 5% FETALCLONE® II (HyClone Laboratories, Inc; Logan, Utah), 0.2% DMSO, 100 units penicillin G/ml, and 100 μg streptomycin sulfate/ml (GIBCO/BRL)]. The concentration of the vehicle in each of the compound dilutions was the same.
# Positive Controls: Purified human FSH (>98%) was purchased from Cortex Biochem, Inc. (San Leandro, Calif.) and 3-[(2S*,5R*)-5-{[2-(1H-Indol-3-yl)-ethylcarbamoyl]-methyl}-4-oxo-2-(5-phenylethynyl-thiophen-2-yl)-thiazolidin-3-yl]-benzamide (an FSH-R thiazolidinone antagonist) was prepared by processes described by R. A. Scheuerman et al. in U.S. Pat. No. 6,426,357 (Affymax).
# The CHO FSH-R 6CRE-Luc cells (1D7 cells) were obtained from Affymax (Palo Alto, Calif.). These Chinese hamster ovary cells (CHO-K1) were engineered genetically to stably express the recombinant human FSH receptor gene and a luciferase reporter gene under the regulation of 6 copies of a cAMP response element. The cells were plated one day prior to treatment into 96-well white opaque plates at a density of 50,000 cells/100 μl/well in growth medium. On the day of treatment, the growth medium was removed from the wells by aspiration and 50 μl of fresh growth medium was added to each well. The cells were incubated at 37° C. in a humidified incubator with 5% CO2/95% air.
# The treated cells were incubated for 4 hours at 37° C. in a humidified incubator with 5% CO2/95% air. At the end of the incubation period, luciferase activity was measured by chemiluminescence using a commercially available kit (LucScreen, Tropix, Inc., Bedford, Mass.) according to the manufacturer's specifications, except that Buffer 1 and Buffer 2 were mixed together in equal proportion prior to the addition of 100 μl of the combined reagents to each well. Chemiluminescence was detected using a luminometer (EG & G Berthold Microlumat LB 96 P, Wallac, Gaithersburg, Md.) with chemiluminescence measured for 1 sec/well. Background luminescence was measured for each well prior to the addition of the LucScreen reagent.
# In the 96-well 2-dose format, each compound was tested in duplicate at each dose. […] One plate was used to test a maximum of 22 compounds.
# The EC50 of purified human FSH alone was tested in triplicate with each test compound. The doses chosen to test each compound were extrapolated from the initial 2-dose screening process. Along with the test compounds, purified human FSH also was tested in a dose response (0.03, 0.1, 0.3, 1, 3, 10, and 30 ng/ml) for a positive control and quality control. One plate was used for 3 test compounds and the FSH positive control.
# Luciferase activity is expressed as relative light units/sec/well. Luciferase activity in antagonist was compared to the appropriate negative and positive controls. For 2-dose testing, results are reported as luciferase activity and are expressed as percent inhibition of the response obtained from the EC50 of FSH.
row,SMILES,IC50
1,O=C(NCc1cccnc1)c1ccc2n1Cc1ccccc1N(C(=O)c1ccc(C(F)(F)F)cc1)C2 [Example 79],17.8 µM
2,Cc1cccc(C(=O)N2Cc3ccc(C(=O)NCc4cccnc4)n3Cc3ccccc32)c1 [Example 83],16.6 µM
3,O=C(NCc1cccnc1)c1ccc2n1Cc1ccccc1N(C(=O)c1cccc(C(F)(F)F)c1)C2 [Example 92],9.9 µM
4,O=C(NCc1cccnc1)c1ccc2n1Cc1ccccc1N(C(=O)c1ccc(F)c(F)c1)C2 [Example 100],31.5 µM
5,"NS(=O)(=O)c1cc(C(=O)N2Cc3ccc(C(=O)NCc4cccnc4)n3Cc3ccccc32)ccc1N1CCOCC1 [Example 114, 10-[3-(AMINOSULFONYL)-4-MORPHOLIN-4-YLBENZOYL]-N-(PYRIDIN-3-YLMETHYL)-10,11-DIHYDRO-5H-PYRROLO[2,1-C][1,4]BENZODIAZEPINE-3-CARBOXAMIDE HEMIHYDRATE]",> 30 µM
6,O=C(NCc1cccnc1)c1ccc2n1Cc1ccccc1N(C(=O)c1ccccn1)C2 [Example 116],> 30 µM
7,O=C(NCc1cccnc1)c1ccc2n1Cc1ccccc1N(C(=O)c1cc(Cl)sc1Cl)C2 [Example 118],27.7 µM
8,O=C(NCc1cccnc1)c1ccc2n1Cc1ccccc1N(C(=O)c1ccc(NCc3cccnc3)nc1)C2 [Example 131],15.8 µM
9,CCCCNc1ccc(C(=O)N2Cc3ccc(C(=O)NCc4cccnc4)n3Cc3ccccc32)cn1 [Example 133],14.5 µM

# The remaining lines, values ahead:
row,IC50,SMILES
1,17 µM,"COc1ccccc1-c1ccc(C(=O)N2Cc3ccc(C(=O)NCC(c4cccnc4)N4CCCC4)n3Cc3ccccc32)cc1 (stereo not drawn) [Example 9, 10-[(2′-METHOXY-1,1′-BIPHENYL-4-YL)CARBONYL]-N-(2-PYRIDIN-3-YL-2-PYRROLIDIN-1-YLETHYL)-10,11-DIHYDRO-5H-PYRROLO[2,1-C][1,4]BENZODIAZEPINE-3-CARBOXAMIDE]"
2,15 µM,Cc1ccc(-c2ccc(C(=O)N3Cc4ccc(C(=O)NCc5cccnc5)n4Cc4ccccc43)cc2C)cc1 [Example 22]
3,> 30 µM,CC(=O)c1ccc(-c2ccc(C(=O)N3Cc4ccc(C(=O)NCc5cccnc5)n4Cc4ccccc43)cc2C)cc1 [Example 26]
4,22.7 µM,Cc1ccccc1-c1cccc(C(=O)N2Cc3ccc(C(=O)NCc4cccnc4)n3Cc3ccccc32)c1 [Example 27]
5,31 µM,"O=C(O)Cc1ccccc1-c1ccc(C(=O)N2Cc3ccc(C(=O)NCc4cccnc4)n3Cc3ccccc32)cc1 [Example 35, (4′-{[3-{[(PYRIDIN-3-YLMETHYL)AMINO]CARBONYL}-5H-PYRROLO[2,1-C][1,4]BENZODIAZEPIN-10(11H)-YL]CARBONYL}-1,1′-BIPHENYL-2-YL)ACETIC ACID]"
6,29.1 µM,CCN(CC)C(=O)Cc1ccccc1-c1ccc(C(=O)N2Cc3ccc(C(=O)NCc4cccnc4)n3Cc3ccccc32)cc1 [Example 67]
7,18.8 µM,Cc1ccc(C(=O)N2Cc3ccc(C(=O)NCc4cccnc4)n3Cc3ccccc32)cc1 [Example 77]
8,12 µM,O=C(NCc1cccnc1)c1ccc2n1Cc1ccccc1N(C(=O)c1ccc(Oc3ccccc3)cc1)C2 [Example 101]
9,49.6 µM,COc1ccccc1CNc1ccc(C(=O)N2Cc3ccc(C(=O)NCc4cccnc4)n3Cc3ccccc32)cn1 [Example 120]
10,18.7 µM,O=C(NCc1cccnc1)c1ccc2n1Cc1ccccc1N(C(=O)c1ccc(NCCc3ccccc3)nc1)C2 [Example 126]
11,11.3 µM,O=C(NCc1cccnc1)c1ccc2n1Cc1ccccc1N(C(=O)c1ccc3ccccc3c1)C2 [Example 146]

# Test system: not given
# Assay: not given
# Settings: not given
row,SMILES,melting point
1,Cc1ncc(CNC(=O)c2ccc3n2Cc2ccccc2N(C(=O)CSc2ccc(Br)cc2)C3)c(CO)c1O,199 to 200 °C
2,CN(C)C(=O)c1ccccc1-c1ccc(C(=O)N2Cc3ccc(C(=O)NCc4cccnc4)n3Cc3ccccc32)cc1,206 to 207 °C
3,COc1cc(C(=O)N2Cc3ccc(C(=O)NCc4c(CO)cnc(C)c4O)n3Cc3ccccc32)ccc1-c1ccccc1C (as salt: hydrochloride) (hydrate or solvate),179 °C
4,O=C(NCc1cccnc1)c1ccc2n1Cc1ccccc1N(C(=O)CSc1ccc(Br)cc1)C2 (as salt: hydrochloride) (hydrate or solvate) [Example 141],136 to 137 °C
